The test has as its target T1, human LPA1 (Homo sapiens, UniProt Q92633).
T1 construct: expressed in transfected cells; host or cells: Chinese hamster ovary (CHO) cells
Briefly: LPA1 functional antagonist assay (calcium flux). In kind it is cell-based. The settings on record: CHO cells overexpressing human LPA1; inhibition of calcium flux induced by 10 nM LPA; read-out: hLPA1 IC50. As for the experimental part: The effectiveness of compounds of the present invention as LPA1 inhibitors can be determined in an LPA1 functional antagonist assay as follows: • Chinese hamster ovary cells overexpressing human LPA1 were plated overnight (15,000 cells/well) in poly-D-lysine coated 384-well microplates (Greiner bio-one, Cat #781946) in DMEM/F12 medium (Gibco, Cat #11039). Following overnight culture, cells were loaded with calcium indicator dye (AAT Bioquest Inc, Cat #34601) for 30 minutes at 37° C. The cells were then equilibrated to room temperature for 30 minutes before the assay. Test compounds solubilized in DMSO were transferred to 384 well non-binding surface plates (Corning, Cat #3575) using the Labcyte Echo acoustic dispense and diluted with assay buffer [[…] with calcium/magnesium (Gibco Cat #14025-092), 20 mM HEPES (Gibco Cat #15630-080) and 0.1% fatty acid free BSA (Sigma Cat #A9205)] to a final concentration of 0.5% DMSO. Diluted compounds were added to the cells by FDSS6000 (Hamamatsu) at final concentrations ranging from 0.08 nM to 5 μM. and were then incubated for 20 min at room temperature at which time LPA (Avanti Polar Lipids Cat #857130C) was added at final concentrations of 10 nM to stimulate the cells. The compound IC50 value was defined as the concentration of test compound which inhibited 50% of the calcium flux induced by LPA alone. IC50 values were determined by fitting data to a 4-parameter logistic equation (GraphPad Prism, San Diego CA). b. In Vivo Assays LPA Challenge with Plasma Histamine Evaluation.
For orientation: Calcium flux is commonly read through the fluorescence of an indicator in the cells.

Structures are written as SMILES. Where a name gives a salt, the structure may show the parent alone.

For orientation: IC50 means the concentration that gives 50% inhibition.

T1 sequence (Q92633 whole entry): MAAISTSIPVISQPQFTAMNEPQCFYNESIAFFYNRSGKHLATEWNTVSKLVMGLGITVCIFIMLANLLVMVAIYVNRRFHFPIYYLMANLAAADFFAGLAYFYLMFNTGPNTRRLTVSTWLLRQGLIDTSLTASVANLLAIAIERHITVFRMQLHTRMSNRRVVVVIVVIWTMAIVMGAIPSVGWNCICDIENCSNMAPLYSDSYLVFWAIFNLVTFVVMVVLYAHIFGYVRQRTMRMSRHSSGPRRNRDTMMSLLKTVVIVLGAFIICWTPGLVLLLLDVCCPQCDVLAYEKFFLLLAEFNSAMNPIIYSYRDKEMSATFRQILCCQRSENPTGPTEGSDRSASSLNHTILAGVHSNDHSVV

Turning to `Cc1nc(-c2nnn(C)c2NC(=O)OCC2CC2)ccc1O[C@@H]1CC[C@H]2C(C(=O)O)[C@@H]12` (mixture of isomers) [Example 52, (±)-(1S,2R,5R,6R)-2-((6-(5-(((cyclopropylmethoxy)carbonyl)amino)-1-methyl-1H-1,2,3-triazol-4-yl)-2-methylpyridin-3-yl)oxy)bicyclo[3.1.0]hexane-6-carboxylic Acid], the IC50 came out at 1720 nM.
To `Cc1nc(-c2nnn(C)c2COC(=O)N(C)CC2CCC2)ccc1O[C@@H]1CC[C@H]2C(C(=O)O)[C@@H]12` (single isomer, unassigned) [Example 45] belongs 92 nM; to `Cc1nc(-c2nnn(C)c2COC(=O)N(C)CC2CCC2)ccc1O[C@@H]1CC[C@H]2[C@@H](C(=O)O)[C@H]21` (racemic) [Example 49, (±)-(1S,2R,5R,6R)-2-((6-(5-((((Cyclobutylmethyl)(methyl)carbamoyl)oxy)methyl)-1-methyl-1H-1,2,3-triazol-4-yl)-2-methylpyridin-3-yl)oxy)bicyclo[3.1.0]hexane-6-carboxylic Acid], 162 nM.
The same measure for `Cc1nc(-c2nnn(C)c2COC(=O)N(C)CC2CCC2)ccc1O[C@H]1CCO[C@H](C(=O)O)C1` [Example 40]: 158 nM.
Regarding `CCCCN(C)C(=O)OCc1c(-c2ccc(O[C@H]3COC[C@@H](C(=O)O)C3)c(C)n2)nnn1C` [Example 30], the IC50 is 236 nM.
For the compound `Cc1nc(-c2nnn(C)c2COC(=O)N(C)CC2CCC2)ccc1O[C@H]1CC[C@@H]2[C@@H](C(=O)O)[C@@H]21` (single isomer, unassigned) [Example 46], the IC50 was 2010 nM.
`CN(C(=O)OCc1c(-c2ccc(O[C@@H]3CC[C@H]4C(C(=O)O)[C@@H]34)cn2)nnn1C)C1CCCC1` (stereo partly drawn) [Example 71]: the IC50 was found to be 114 nM.
In the case of `Cc1nc(-c2nnn(C)c2COC(=O)N(C)CC2CCCC2)ccc1OC1COCC(C(=O)O)C1` (racemic) [Example 28, (±)-trans-5-((6-(5-((((cyclopentylmethyl)(methyl)carbamoyl)oxy)methyl)-1-methyl-1H-1,2,3-triazol-4-yl)-2-methylpyridin-3-yl)oxy)tetrahydro-2H-pyran-3-carboxylic Acid, TFA Salt], the IC50 was 225 nM.
To `Cc1nc(-c2nnn(C)c2COC(=O)N(C)CC2CCC2)ccc1O[C@H]1C[C@H]2C[C@H]2[C@H](C(=O)O)C1` (racemic) [Example 2, (±)-(1R,2R,4S,6R)-4-((6-(5-((((cyclobutylmethyl)(methyl)carbamoyl)oxy)methyl)-1-methyl-1H-1,2,3-triazol-4-yl)-2-methylpyridin-3-yl)oxy) bicyclo[4.1.0]heptane-2-carboxylic Acid] belongs 26 nM; to `CCCCCOC(=O)Nc1c(-c2ccc(O[C@H]3COC[C@H](C(=O)O)C3)c(C)n2)nnn1C` (racemic) [Example 23, (±)-trans-5-((2-methyl-6-(1-methyl-5-(((pentyloxy)carbonyl)amino)-1H-1,2,3-triazol-4-yl)pyridin-3-yl)oxy)tetrahydro-2H-pyran-3-carboxylic Acid, TFA Salt], 157 nM; to `Cc1nc(-c2nnn(C)c2COC(=O)N(C)C2CCC2)ccc1O[C@@H]1CC[C@H]2C(C(=O)O)[C@@H]12` (stereo partly drawn) [Example 61], 98 nM.
The same measure for `Cc1nc(-c2nnn(C)c2NC(=O)OCC2CC2)ccc1O[C@H]1C[C@H](C(=O)O)[C@@H]2C[C@@H]21` [Example 16]: 1.43 nM; for `Cc1nc(-c2nnn(C)c2COC(=O)N(C)Cc2ccccc2)ccc1O[C@@H]1COC[C@@H](C(=O)O)C1` [Example 22B]: 178 nM; for `CCCCOC(=O)NCc1c(-c2ccc(O[C@@H]3CCC4C(C(=O)O)C43)c(C)n2)nnn1C` (stereo partly drawn) [Example 56]: 155 nM.
With `CCCN(C)C(=O)OCc1c(-c2ccc(O[C@H]3C[C@H](C(=O)O)[C@@H]4C[C@@H]43)c(C)n2)nnn1C` [Example 13], the IC50 is 793 nM.
To `Cc1nc(-c2nnn(C)c2COC(=O)N(C)CC2CCC2)ccc1O[C@H]1CC2C[C@H]2[C@@H](C(=O)O)C1` (mixture of isomers) [Example 7, (±)-(1R,2S,4S,6R)-4-((6-(5-((((cyclobutylmethyl)(methyl)carbamoyl)oxy)methyl)-1-methyl-1H-1,2,3-triazol-4-yl)-2-methylpyridin-3-yl)oxy)bicyclo[4.1.0]heptane-2-carboxylic Acid] belongs 40 nM; to `Cc1nc(-c2nnn(C)c2CNC(=O)OCC(C)(C)C)ccc1O[C@@H]1CCC2C(C(=O)O)C21` (stereo partly drawn) [Example 54], 275 nM; to `Cc1nc(-c2nnn(C)c2COC(=O)N(C)CC2CCC2)ccc1O[C@@H]1CC[C@H]2C(C(=O)O)[C@@H]12` (single isomer, unassigned) [Example 44, TFA Salt], 65 nM.
As for `CCCN(C)C(=O)OCc1c(-c2ccc(O[C@@H]3COC[C@@H](C(=O)O)C3)c(C)n2)nnn1C` (racemic) [Example 17, (±)-trans-5-((2-methyl-6-(1-methyl-5-(((methyl(propyl)carbamoyl)oxy)methyl)-1H-1,2,3-triazol-4-yl)pyridin-3-yl)oxy)tetrahydro-2H-pyran-3-carboxylic Acid, TFA Salt], the IC50 came to 931 nM.
To `Cc1nc(-c2nnn(C)c2CNc2nccc(OC3CC3)n2)ccc1OC1CC[C@H]2C(C(=O)O)[C@@H]12` (mixture of isomers) [Example 50, (±)-(1S,2R,5R,6R)-2-((6-(5-(((4-Cyclopropoxypyrimidin-2-yl)amino)methyl)-1-methyl-1H-1,2,3-triazol-4-yl)-2-methylpyridin-3-yl)oxy)bicyclo[3.1.0]hexane-6-carboxylic Acid] belongs 105 nM.
The same measure for `Cc1nc(-c2nnn(C)c2COC(=O)N(C)CC2CCC2)ccc1O[C@H]1CC2C[C@H]2[C@@H](C(=O)O)C1` (single isomer, unassigned) [Example 9]: 582 nM; for `CCCCCN(C)C(=O)OCc1c(-c2ccc(O[C@@H]3COC[C@@H](C(=O)O)C3)c(C)n2)nnn1C` [Example 19]: 151 nM; for `CCCN(C)C(=O)OCc1c(-c2ccc(O[C@@H]3CC[C@H]4C(C(=O)O)[C@@H]34)c(C)n2)nnn1C` (mixture of isomers) [Example 51, (±)-(1S,2R,5R,6R)-2-((2-methyl-6-(1-methyl-5-(((methyl(propyl)carbamoyl)oxy)methyl)-1H-1,2,3-triazol-4-yl)pyridin-3-yl)oxy)bicyclo[3.1.0]hexane-6-carboxylic Acid]: 724 nM.
The same measure for `CCCN(C)C(=O)OCc1c(-c2ccc(O[C@@H]3CC[C@H]4C(C(=O)O)[C@@H]34)cn2)nnn1C` (mixture of isomers) [Example 69]: 453 nM.
As to `Cc1nc(-c2nnn(C)c2COC(=O)N(C)C2CCCC2)ccc1O[C@H]1CCO[C@@H](C(=O)O)C1` [Example 36], the IC50 stood at 713 nM.
For `Cc1nc(-c2nnn(C)c2NC(=O)OCc2ccccc2)ccc1O[C@@H]1CC[C@H]2C(C(=O)O)[C@@H]12` (stereo partly drawn) [Example 64], the IC50 is 125 nM.
To `Cc1nc(-c2nnn(C)c2COC(=O)N(C)CC2CCC2)ccc1O[C@@H]1C[C@@H]2C[C@@H]2[C@@H](C(=O)O)C1` (single isomer, unassigned) [Example 6] belongs 562 nM.

Values taken from patent US12435057B2, “Triazole carboxylic acids as LPA antagonists” (BRISTOL-MYERS SQUIBB COMPANY, priority 2019, dated 2025).
